The test system of one assay is MCF7. In words: Cell proliferation assay (CellTiter-Glo, 96 h), MCF7. The note with it: Homo sapiens. The class given is cell-based. Summed up: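 Seeding: 2000-5000 cells/well; overnight, 37° C. Separate t=0 plate read. Compound diluted in growth medium, 96 h, 37° C. Readout: CellTiter-Glo luminescence, t=0 subtracted; % growth inhibition vs control.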
In assay [1] the target is T1, human ACC1 (acetyl-coenzyme A carboxylase alpha transcript variant 1) (Homo sapiens, UniProt Q13085).
T1 construct: FLAG (C); made in house; host or cells: baculovirus-infected insect cells (Hi5)
As to the kind of experiment: Human ACC1 enzyme assay, Assay B1 (ADP-Glo). Type of assay: biochemical.
Protocol: Essentially, the enzyme activity is measured by quantifying the adenosine diphosphate (ADP) formed as a byproduct of the enzyme reactions using the ADP-Glo™ detection system from Promega. In this test, initially the adenosine triphosphate (ATP) not consumed in the enzyme reaction is converted quantitatively with an adenylate cyclase (“ADP-GLO reagent”) into cAMP, the adenylate cyclase is then stopped and (“kinase detection reagent”) the ADP formed is subsequently converted into ATP, which is converted in a luciferase-based reaction into a glow luminescence signal.
The concentration of the hACC1 was adapted to the respective activity of the enzyme and adjusted such that the assay operated in the linear range. […] The amount of light emitted was taken as a measure for the amount of ADP formed and thus for the enzyme activity of the hACC1.

A further assay relates to HCC-1937. In words: Cell proliferation assay (CellTiter-Glo, 96 h), HCC-1937. Type of assay: cell-based. The note with it: Homo sapiens, HCC1937. How it is done: (§1) In accordance with the invention, the substances were tested in cell-based assays for the ability of the substances of inhibiting tumour cell proliferation after a 96-hour incubation with the substance. Cell viability was tested using the CellTiter-Glo® luminescent cell viability assay (Promega). The cells were sown at a density of 2000-5000 cells/well (depending on the cell line) in 100 μl growth medium on 96-well microtitre plates. For each cell line examined, cells were sown on a separate plate to determine the luminescence at t=0 hours and t=96 hours. After overnight incubation at 37° C., the luminescence values for the t=0 samples were determined. The dose plates for the t=96 hours points in time were treated with substances diluted with growth medium. The cells were then incubated at 37° C. for 96 hours, and the luminescence values for the t=96 hours sample were then determined. For data analysis, the t=0 values were subtracted from the t=96 hour values for treated and untreated samples. The differences in luminescence in percent between substance-treated samples and control values were used to determine the growth inhibition in percent.
(§2) The substances were tested in the following cell lines which represent the stated indications in an exemplary manner: […]

In assay [2] the target is human ACC2 (acetyl-coenzyme A carboxylase 2) (Homo sapiens, UniProt O00763). As to the kind of experiment: Human ACC2 enzyme assay, Assay B2 (ADP-Glo).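 Further: human ACC2 activity read as ADP product, detected by luciferase glow luminescence after residual ATP removal, enzyme near 2 ng/µl in linear range, detection steps at 22 °C.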
Sequence of human ACC2 (acetyl-coenzyme A carboxylase 2) (O00763 27-2458 limits assumed): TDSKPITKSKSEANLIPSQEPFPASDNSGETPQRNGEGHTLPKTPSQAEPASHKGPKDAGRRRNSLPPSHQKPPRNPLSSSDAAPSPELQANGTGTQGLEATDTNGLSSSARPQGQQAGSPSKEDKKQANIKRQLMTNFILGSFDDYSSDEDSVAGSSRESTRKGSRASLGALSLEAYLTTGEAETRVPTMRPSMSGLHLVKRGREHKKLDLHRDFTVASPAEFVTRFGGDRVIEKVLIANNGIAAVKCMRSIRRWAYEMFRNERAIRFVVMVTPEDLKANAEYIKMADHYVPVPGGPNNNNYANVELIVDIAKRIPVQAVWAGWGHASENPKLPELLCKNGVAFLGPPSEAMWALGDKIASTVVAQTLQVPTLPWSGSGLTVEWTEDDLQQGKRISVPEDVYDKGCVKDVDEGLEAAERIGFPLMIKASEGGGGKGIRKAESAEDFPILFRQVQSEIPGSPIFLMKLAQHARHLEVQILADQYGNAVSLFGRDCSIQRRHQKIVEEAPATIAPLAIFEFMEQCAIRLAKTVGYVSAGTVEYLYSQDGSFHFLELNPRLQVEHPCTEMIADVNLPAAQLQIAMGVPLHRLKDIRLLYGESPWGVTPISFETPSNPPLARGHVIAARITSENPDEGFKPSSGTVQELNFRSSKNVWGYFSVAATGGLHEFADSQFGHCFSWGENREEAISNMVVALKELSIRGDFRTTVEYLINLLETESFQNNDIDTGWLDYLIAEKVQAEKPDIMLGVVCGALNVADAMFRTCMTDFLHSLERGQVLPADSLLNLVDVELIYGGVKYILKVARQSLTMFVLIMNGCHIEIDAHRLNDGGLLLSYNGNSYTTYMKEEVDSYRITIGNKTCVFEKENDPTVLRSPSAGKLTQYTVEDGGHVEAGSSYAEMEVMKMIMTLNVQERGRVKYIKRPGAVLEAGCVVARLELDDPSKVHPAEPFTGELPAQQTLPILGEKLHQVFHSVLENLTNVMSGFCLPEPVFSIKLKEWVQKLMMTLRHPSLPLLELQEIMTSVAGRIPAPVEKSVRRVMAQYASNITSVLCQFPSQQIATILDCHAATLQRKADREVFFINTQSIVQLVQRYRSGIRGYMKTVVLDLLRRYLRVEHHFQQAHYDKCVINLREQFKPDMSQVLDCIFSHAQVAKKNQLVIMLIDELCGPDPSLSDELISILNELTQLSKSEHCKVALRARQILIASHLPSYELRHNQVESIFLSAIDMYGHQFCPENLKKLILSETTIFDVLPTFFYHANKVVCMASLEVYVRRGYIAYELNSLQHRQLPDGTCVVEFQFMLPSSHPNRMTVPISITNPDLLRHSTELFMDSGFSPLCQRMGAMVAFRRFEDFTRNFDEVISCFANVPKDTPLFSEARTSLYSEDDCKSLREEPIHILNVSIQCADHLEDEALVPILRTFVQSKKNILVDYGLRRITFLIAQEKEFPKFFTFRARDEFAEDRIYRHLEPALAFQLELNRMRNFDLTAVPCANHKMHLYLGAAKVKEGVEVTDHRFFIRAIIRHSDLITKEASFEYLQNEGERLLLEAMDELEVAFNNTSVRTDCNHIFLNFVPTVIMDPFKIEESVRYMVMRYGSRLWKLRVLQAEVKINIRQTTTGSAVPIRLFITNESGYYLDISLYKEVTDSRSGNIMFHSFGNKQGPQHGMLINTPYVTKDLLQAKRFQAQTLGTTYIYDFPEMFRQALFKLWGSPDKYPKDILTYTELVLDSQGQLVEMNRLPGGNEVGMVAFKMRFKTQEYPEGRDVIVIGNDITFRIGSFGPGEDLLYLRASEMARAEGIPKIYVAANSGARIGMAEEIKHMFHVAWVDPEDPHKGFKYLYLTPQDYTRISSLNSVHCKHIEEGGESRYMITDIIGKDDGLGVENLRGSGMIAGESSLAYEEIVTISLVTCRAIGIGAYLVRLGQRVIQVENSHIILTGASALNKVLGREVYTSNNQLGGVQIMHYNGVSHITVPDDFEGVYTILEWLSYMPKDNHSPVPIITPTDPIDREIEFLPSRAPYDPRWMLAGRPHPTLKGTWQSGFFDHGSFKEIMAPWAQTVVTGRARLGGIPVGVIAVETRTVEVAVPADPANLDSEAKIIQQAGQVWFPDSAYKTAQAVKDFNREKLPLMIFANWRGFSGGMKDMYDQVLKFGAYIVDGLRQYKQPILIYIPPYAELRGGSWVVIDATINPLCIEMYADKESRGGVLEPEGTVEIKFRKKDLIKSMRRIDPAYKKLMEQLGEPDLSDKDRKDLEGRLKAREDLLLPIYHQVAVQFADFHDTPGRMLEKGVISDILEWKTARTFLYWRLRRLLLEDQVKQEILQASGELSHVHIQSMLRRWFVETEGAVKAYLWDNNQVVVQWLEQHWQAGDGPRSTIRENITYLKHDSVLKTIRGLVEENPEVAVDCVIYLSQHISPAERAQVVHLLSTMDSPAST
The test system of assay [3] is malonyl-CoA in a tumour (human MCF-7 breast cancer cells). In words: Mode-of-action experiment: intratumour malonyl-CoA in MCF-7 tumours after oral administration. The settings on record: Mus musculus, after 7 h. The class given is in vivo, female nude mice (NMRI-nude (nu/nu)). How it is done:
Mode-of-Action Experiment
Prior to the determination of the activity in the MCF-7 model, some of the test substances were examined in a “mode of action” experiment. The principle of this experiment is that short-term application of a test substance capable of inhibiting ACC1 and/or ACC2 in a living organism after oral administration reduces malonyl-CoA in a tumour. To this end, in the experiment 2 million human MCF-7 breast cancer cells were injected subcutaneously into female nude mice (NMRI-nude (nu/nu) mice, Taconic M&B A/S, 1 day beforehand administration of a pellet for the release of oestrogen over a period of at least 60 days). Once the tumour extended to an area of about 60-70 mm^2, the test substance was administered orally over a period of 1-3 days, and at defined points in time the intratumour content of malonyl-CoA was then determined and compared to the vehicle control. The method is described in Anal Chem 2008 Aug. 1; 80(15):5736-42. Epub 2008 Jul. 9.).

For the next assay, the system named is MDA-MB-468. In words: Cell proliferation assay (CellTiter-Glo, 96 h), MDA-MB-468. The note with it: Homo sapiens. The class given is cell-based. How it is done:
as §1, §2

In another assay the test system is Miapaca. In words: Cell proliferation assay (CellTiter-Glo, 96 h), Miapaca. The note with it: Homo sapiens, MIA PaCa-2. The class given is cell-based. The method, then:
as §1, §2

Another assay has as its system MDA-MB-436. In words: Cell proliferation assay (CellTiter-Glo, 96 h), MDA-MB-436. Type of assay: cell-based. The settings on record: Homo sapiens. The method, then:
as §1, §2

In a further assay the test system is KM12. In words: Cell proliferation assay (CellTiter-Glo, 96 h), KM12. The class given is cell-based. The settings on record: Homo sapiens, 96-hour incubation. How it is done:
as §1, §2

Assay [4] addresses acetyl-CoA carboxylase 2 (ACC2) (Homo sapiens, UniProt O00763). In words: Human ACC2 enzyme assay, Assay A2 (HTRF ADP immunoassay).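 Further: ADP generated by ACC2 quantified via competitive time-resolved FRET between europium cryptate anti-ADP antibody and d2-tagged ADP, enzyme kept in linear range near 0.6 ng/µl.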
Another assay concerns the target recombinant human ACC1 (Homo sapiens, UniProt Q13085). As to the kind of experiment: Human ACC1 enzyme assay, Assay A1 (HTRF ADP immunoassay).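 Further: ADP generated by the enzyme quantified via competitive time-resolved FRET, read as europium cryptate to d2 energy transfer after 1 h at 22 °C with labelled ADP tracer and anti-ADP antibody.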
The mark [5] stands for this setting: MCF7, Table 7, 96-hour incubation.

Where two headings read alike, the source gives them in different places.

Sequence of acetyl-CoA carboxylase 2 (ACC2) (O00763 39-2458 limits assumed): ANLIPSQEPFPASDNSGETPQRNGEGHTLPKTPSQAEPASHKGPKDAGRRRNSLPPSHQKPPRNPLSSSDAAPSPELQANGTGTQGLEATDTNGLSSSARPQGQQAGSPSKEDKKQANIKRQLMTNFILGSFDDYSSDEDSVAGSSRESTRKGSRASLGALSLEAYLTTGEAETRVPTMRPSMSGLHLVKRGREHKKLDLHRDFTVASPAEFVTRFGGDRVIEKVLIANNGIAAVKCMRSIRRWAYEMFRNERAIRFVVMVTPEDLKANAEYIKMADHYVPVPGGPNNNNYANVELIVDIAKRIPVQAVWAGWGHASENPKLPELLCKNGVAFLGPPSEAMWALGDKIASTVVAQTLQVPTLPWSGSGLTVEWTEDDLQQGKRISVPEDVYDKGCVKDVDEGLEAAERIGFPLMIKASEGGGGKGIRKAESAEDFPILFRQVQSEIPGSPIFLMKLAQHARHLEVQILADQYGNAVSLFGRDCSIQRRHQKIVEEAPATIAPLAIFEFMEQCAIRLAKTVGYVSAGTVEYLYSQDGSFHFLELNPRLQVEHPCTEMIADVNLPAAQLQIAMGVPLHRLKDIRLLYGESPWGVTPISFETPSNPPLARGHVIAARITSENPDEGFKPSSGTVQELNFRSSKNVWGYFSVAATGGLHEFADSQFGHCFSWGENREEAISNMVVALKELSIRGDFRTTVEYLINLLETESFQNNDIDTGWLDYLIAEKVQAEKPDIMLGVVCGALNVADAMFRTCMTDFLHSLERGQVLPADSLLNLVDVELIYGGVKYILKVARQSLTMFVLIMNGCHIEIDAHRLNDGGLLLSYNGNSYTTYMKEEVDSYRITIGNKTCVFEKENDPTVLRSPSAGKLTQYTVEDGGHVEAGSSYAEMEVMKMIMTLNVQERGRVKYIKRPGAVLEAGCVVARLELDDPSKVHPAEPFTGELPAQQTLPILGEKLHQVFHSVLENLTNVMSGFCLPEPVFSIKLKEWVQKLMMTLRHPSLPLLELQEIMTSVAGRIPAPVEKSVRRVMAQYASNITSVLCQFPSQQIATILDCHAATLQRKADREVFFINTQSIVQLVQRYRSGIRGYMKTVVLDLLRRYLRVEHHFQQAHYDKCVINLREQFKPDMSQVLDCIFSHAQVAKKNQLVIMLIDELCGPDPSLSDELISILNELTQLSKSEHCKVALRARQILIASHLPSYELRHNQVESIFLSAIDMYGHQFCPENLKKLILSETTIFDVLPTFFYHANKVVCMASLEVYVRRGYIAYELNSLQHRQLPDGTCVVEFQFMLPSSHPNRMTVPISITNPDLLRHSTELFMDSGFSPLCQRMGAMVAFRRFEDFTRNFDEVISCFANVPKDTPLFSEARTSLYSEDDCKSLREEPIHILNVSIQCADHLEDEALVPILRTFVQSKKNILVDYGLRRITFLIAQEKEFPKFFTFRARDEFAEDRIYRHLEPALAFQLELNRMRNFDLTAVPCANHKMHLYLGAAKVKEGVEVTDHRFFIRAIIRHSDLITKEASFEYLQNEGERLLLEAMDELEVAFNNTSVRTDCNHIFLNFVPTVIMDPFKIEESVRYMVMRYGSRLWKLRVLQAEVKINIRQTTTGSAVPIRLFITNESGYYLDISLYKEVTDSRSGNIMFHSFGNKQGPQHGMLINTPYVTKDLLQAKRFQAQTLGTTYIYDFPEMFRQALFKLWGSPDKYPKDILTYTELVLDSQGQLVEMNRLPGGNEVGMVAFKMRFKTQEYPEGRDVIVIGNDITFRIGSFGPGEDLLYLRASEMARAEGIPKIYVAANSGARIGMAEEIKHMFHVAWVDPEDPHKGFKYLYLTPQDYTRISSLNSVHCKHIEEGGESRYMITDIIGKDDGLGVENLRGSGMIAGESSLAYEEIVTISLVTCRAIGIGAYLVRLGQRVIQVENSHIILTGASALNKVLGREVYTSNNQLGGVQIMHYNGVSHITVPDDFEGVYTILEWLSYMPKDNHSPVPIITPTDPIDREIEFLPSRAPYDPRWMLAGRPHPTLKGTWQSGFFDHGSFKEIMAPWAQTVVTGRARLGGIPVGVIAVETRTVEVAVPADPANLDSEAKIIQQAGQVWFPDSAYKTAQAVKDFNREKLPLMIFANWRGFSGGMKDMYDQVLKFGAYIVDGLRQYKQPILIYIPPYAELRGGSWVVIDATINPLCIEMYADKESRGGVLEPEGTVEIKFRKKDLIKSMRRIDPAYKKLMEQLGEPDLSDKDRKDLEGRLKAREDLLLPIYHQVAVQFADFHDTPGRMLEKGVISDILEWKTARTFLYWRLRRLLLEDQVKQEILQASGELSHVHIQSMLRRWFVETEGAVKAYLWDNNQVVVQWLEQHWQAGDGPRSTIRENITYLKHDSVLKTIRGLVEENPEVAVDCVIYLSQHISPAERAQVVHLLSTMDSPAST

Take `Cc1ccc(-c2ccc(Cl)cc2)c(C)c1C1=C(O)C2(CCOCC2)NC1=O` [1-1, 3-(4′-chloro-2,4-dimethylbiphenyl-3-yl)-4-hydroxy-8-oxa-1-azaspiro[4.5]dec-3-en-2-one]: the IC50 was 0.8 µM in the assay with MCF7 (setting [5]); 0.245 µM in [1]; 1.08 µM in the assay on HCC-1937 (96-hour incubation); over 20 µM in [2]; 0.274 µM with MDA-MB-468 (MDA-MB-468, 96-hour incubation); 0.827 µM in the assay with Miapaca (96-hour incubation). The compound further came in with an IC50 in the assay with MDA-MB-436 (MDA-MB-436, 96-hour incubation) of 0.14 µM. This compound registered an inhibition in vivo at 10 mg/kg in assay [3] (MCF7, po, 10 mg/kg, vs Vehicle) of 39%.
With `CO[C@H]1CC[C@]2(CC1)NC(=O)C(c1cc(-c3ccc(Cl)cc3)ccc1Cl)=C2O` [1-120, (5s,8s)-3-(4,4′-Dichlorobiphenyl-3-yl)-4-hydroxy-8-methoxy-1-azaspiro[4.5]dec-3-en-2-one], the IC50 in the assay with MCF7 (setting [5]) turned out to be 0.07 µM; in assay [1], 0.145 µM; in the assay on KM12, 0.714 µM; in [2], 2.26 µM; in assay [4] it was 1.28 µM; at recombinant human ACC1, 0.25 µM.
Regarding `Cc1cc(C)c(-c2ccc(Cl)cc2)cc1C1=C(O)[C@]2(CC[C@@]3(CCCO3)CC2)OC1=O` [2-30, (5r,8s)-3-(4′-chloro-4,6-dimethylbiphenyl-3-yl)-4-hydroxy-1,9-dioxadispiro[4.2.4.2]tetradec-3-en-2-one], the IC50 came to 0.064 µM in the assay with MCF7 (MCF7 cells); 0.696 µM in assay [1]; 1.5 µM in the assay with HCC-1937 (HCC-1937 cells); 0.243 µM in assay [2]; 0.153 µM in the assay with MDA-MB-468 (MDA-MB-468 cells); 0.255 µM in the assay with Miapaca (MiaPaca cells). In the assay with MDA-MB-436 (MDA-MB-436 cells), the IC50 was determined as 0.115 µM. In assay [3] (MCF7, 10 mg/kg oral, MCF-7 tumour in nude mice, vs vehicle), this compound yielded an inhibition in vivo at 10 mg/kg of 36%.
Turning to `O=C1N[C@]2(CC[C@@H](OCC(F)(F)F)CC2)C(O)=C1c1cc(-c2ccc(Cl)cc2)ccc1Cl` [1-29, (5s,8s)-3-(4,4′-dichlorobiphenyl-3-yl)-4-hydroxy-8-(2,2,2-trifluoroethoxy)-1-azaspiro[4.5]dec-3-en-2-one], the IC50 in the assay on MCF7 (setting [5]) came out at 0.032 µM; in assay [1], 0.153 µM; in the assay with KM12, 0.132 µM; in [2] it was 2.62 µM. 10 mg/kg produced 93% inhibition in vivo in assay [3] (MCF7, po, 10 mg/kg, vs Vehicle).
In the case of `Cc1ccc(-c2ccc(Cl)cc2)cc1C1=C(O)C2(CCOCC2)NC1=O` [1-6, 3-(4′-chloro-4-methylbiphenyl-3-yl)-4-hydroxy-8-oxa-1-azaspiro[4.5]dec-3-en-2-one], the IC50 was found to be 0.209 µM with MCF7 (setting [5]); 0.133 µM in assay [1]; 0.873 µM with HCC-1937 (96-hour incubation); 9.34 µM in assay [2]; 0.555 µM in the assay on MDA-MB-468 (MDA-MB-468, 96-hour incubation); 1.25 µM with Miapaca (96-hour incubation). The IC50 in the assay with MDA-MB-436 (MDA-MB-436, 96-hour incubation) stood at 0.313 µM. This compound came in with an inhibition in vivo at 10 mg/kg in assay [3] (MCF7, po, 10 mg/kg, vs Vehicle) of 68%.
With `COC[C@H]1CC[C@]2(CC1)NC(=O)C(c1cc(-c3ccc(F)c(F)c3)ccc1C)=C2O` [1-112, (5s,8s)-3-(3′,4′-Difluoro-4-methylbiphenyl-3-yl)-4-hydroxy-8-(methoxymethyl)-1-azaspiro[4.5]dec-3-en-2-one], the IC50 worked out at 0.079 µM in the assay with MCF7 (setting [5]); 0.2 µM in [1]; 0.174 µM in the assay on KM12; 8.43 µM in assay [2]; 3.91 µM in [4]; 0.167 µM at recombinant human ACC1.
With `Cc1ccc(-c2ccc(Cl)cc2)cc1C1=C(O)C2(CCC(OCC(F)(F)F)CC2)NC1=O` (stereo not shown) [1-33, 3-(4′-chloro-4-methylbiphenyl-3-yl)-4-hydroxy-8-(2,2,2-trifluoroethoxy)-1-azaspiro[4.5]dec-3-en-2-one], the IC50 was found to be 0.027 µM in the assay on MCF7 (setting [5]); 0.234 µM in [1] (Assay B1, read-out: ACC 1 (=B1) IC50); 0.108 µM in the assay on HCC-1937 (96-hour incubation); 2.01 µM in assay [2]; 0.074 µM in the assay on MDA-MB-468 (MDA-MB-468, 96-hour incubation); 0.193 µM in the assay on Miapaca (96-hour incubation). The compound also gave an IC50 in the assay with MDA-MB-436 (MDA-MB-436, 96-hour incubation) of 0.07 µM. In assay [3] (MCF7, po, 10 mg/kg, vs Vehicle), this compound returned an inhibition in vivo at 10 mg/kg of 88%.

(Values after patent publication US20130040935A1, “CYCLIC KETO-ENOLS FOR THERAPY” (BAYER INTELLECTUAL PROPERTY GMBH, priority 2010, published 2013).)
